Results published in US9234025B2, “Extracellular allosteric inhibitor binding domain from a tyrosine kinase receptor” (SANOFI, priority 2009, dated 2016).

How the values were obtained:
[1] = target: T1, FGF1 (Homo sapiens, UniProt P05230); experiment: ITC or STD-NMR, FGF1; format: binding
T1 construct: FGF1 (amino acids: 16-155); made in house
Procedure: The extracellular domain (ECD; amino acids: 39-358) of the human FGFR1 gene (P11362) was PCR amplified and cloned into E. coli vector pETTEV (with a N-terminal His-tag followed by a TEV protease cleavage site), using NdeI and BamHI restriction sites. For protein production, the resulting plasmid (pET FGFR1 D1D2D3) was transformed into E. coli BL21(DE3) (Novagene). Cells were grown at 37° C. until the OD600 reached 0.6 and recombinant protein production was induced by adding 1 mM IPTG (isopropyl-b-D-thiogalactopyranoside). After 4 hours induction, cells were harvested and stored at −80° C. until usage. The cell pellet (1 L culture) was thawed and resuspended in 50 ml buffer 1 (20 mM Tris/HCl, pH 7.5, 200 mM NaCl) containing lysozyme (2 mg), and 40 U benzonase (Merck). […] Complex formation was analyzed by size exclusion chromatography and subsequent analysis on SDS-PAGE.
All STD- and 1D-NMR experiments were carried out on a BRUKER three-channel DRX600 and on a BRUKER four-channel DRX800 spectrometer at the standard temperature of 298 K and were referenced to the internal standard 3-Trimethyl-2,2,3,3-tetradeuteropropionate-sodium salt (TSP). […] For protein ligand 1D STD NMR measurements spectra were recorded with 1 mM ligand SSR128129E (100 mM DMSO stock solution) and […] protein with weak 2s RF irradiation on separated protein methyl resonances. […]

[2] = target: T2, FGFR4 (Homo sapiens, UniProt P22455); experiment: FGF2 binding to FGFR4 in intact cells; conditions: receptor expressed in intact cells
T2 construct: expressed in transfected cells; host or cells: murine pre-B 300-19 cells
T2 sequence (P22455 22-802): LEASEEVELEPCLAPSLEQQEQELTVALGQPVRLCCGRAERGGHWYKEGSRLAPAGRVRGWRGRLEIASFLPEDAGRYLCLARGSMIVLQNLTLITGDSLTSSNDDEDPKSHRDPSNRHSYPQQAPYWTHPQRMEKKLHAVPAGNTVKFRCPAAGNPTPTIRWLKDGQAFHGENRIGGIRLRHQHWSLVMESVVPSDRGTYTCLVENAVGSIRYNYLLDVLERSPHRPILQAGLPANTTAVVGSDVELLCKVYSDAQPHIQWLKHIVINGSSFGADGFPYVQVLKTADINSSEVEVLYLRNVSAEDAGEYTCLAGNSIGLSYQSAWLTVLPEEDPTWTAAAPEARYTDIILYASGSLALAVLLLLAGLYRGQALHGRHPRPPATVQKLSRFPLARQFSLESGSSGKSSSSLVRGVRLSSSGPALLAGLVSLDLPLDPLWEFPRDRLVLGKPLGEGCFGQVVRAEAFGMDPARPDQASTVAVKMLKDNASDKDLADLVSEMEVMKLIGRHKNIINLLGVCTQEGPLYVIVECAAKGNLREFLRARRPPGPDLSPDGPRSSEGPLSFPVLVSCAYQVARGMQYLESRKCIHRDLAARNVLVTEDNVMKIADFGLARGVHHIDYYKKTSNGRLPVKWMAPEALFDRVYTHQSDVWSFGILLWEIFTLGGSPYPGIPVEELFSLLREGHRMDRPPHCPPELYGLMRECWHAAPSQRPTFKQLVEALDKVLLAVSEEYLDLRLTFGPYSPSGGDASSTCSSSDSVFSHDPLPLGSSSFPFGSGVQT

[3] = system: human umbilical vein endothelial cells (HUVECs); experiment: I125-FGF2 binding assay on HUVECs; conditions: intact cells, SSR even at high μM concentrations
[4] = system: AKT phosphorylation in HUVEC cells; experiment: western blot analysis of AKT phosphorylation in HUVEC; format: cell-based, human; conditions: phospho-AKT Ser473
Procedure: HUVE Cells (Promocell, C-12200) are seeded in 35 mm collagen I coated disk (BD Biocoat, 354456) at 0.5.10^6 cells in 2 ml of EBM medium (Clonetics, CC-3121) containing 2% FBS (Clonetics, CC-4101), 10 μg/ml hEGF (Clonetics, CC-4017) from the EGM singlequots kit (Clonetics, CC-4133), 1250 ng/ml heparin (Sigma, H3149) and 375 ng/ml ECGS (BD Biosciences, 356006). At 90% confluency, cells are starved overernight in 1.8 ml of RPMI 1640 (Invitrogen, 32404-014), 0.5% FCS, 2 mM glutamine, 1 mM non-essential amino acids (Invitrogen, 11140-050), sodium pyruvate (Invitrogen, 11360-070). The day after, cells are stimulated 10 min by 200 μl of equilibrated starvation medium that contains 10×FGF-4 (30 ng/ml; R&D, 235-F4-025) with or without 10×SSR (3 μM). Next, cells are rinsed with cold PBS and cell lysed with 75 μl RIPA that contains 2.5 mM orthovanadate and protease inhibitors cocktail (Sigma, P8340). Cell lysates were centrifuged at 12,000 g for 10 min, and the supernatants were collected. Proteins were separated on 4-20% Novex Tris-Glycine polyacrylamide gels (Invitrogen) and subsequently transferred onto nitrocellulose membranes (Invitrogen, IB3010-01). […] Signal of each spot is obtained following chemiluminescent detection with SuperSignal® West Dura Extended Duration Substrate (Thermo Scientific, 34076) and spot density is quantified using a Biolmaging System Chemigenius2 (Syngene).

T1 sequence (P05230 16-155, species assumed): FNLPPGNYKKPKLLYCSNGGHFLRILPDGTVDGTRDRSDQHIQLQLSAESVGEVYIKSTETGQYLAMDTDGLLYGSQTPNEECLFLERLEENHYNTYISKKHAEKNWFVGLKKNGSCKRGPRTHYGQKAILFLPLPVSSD

SMILES: COc1c(C)c(C(=O)c2ccc(N)c(C(=O)[O-])c2)n2ccccc12.[Na+] [SSR]
- binding to FGF1 [1]: failed to bind
- binding of FGF2 to FGFR4 [2]: failed to antagonize
- inhibition of I^125-FGF2 binding to its receptor [3]: unable to inhibit I^125-FGF2 binding
- FGF-induced AKT phosphorylation [4]: inhibit
